One test addresses purified human Factor XIa (Homo sapiens (Human), UniProt P03951). The test is described as follows: Factor XIa chromogenic substrate (S-2366) inhibition assay. The class given is biochemical. The note with it: substrate S-2366, Table 1. How it is done: The effectiveness of compounds of the present invention as inhibitors of the coagulation factors XIa, VIIa, IXa, Xa, XIIa, plasma kallikrein or thrombin, can be determined using a relevant purified serine protease, respectively, and an appropriate synthetic substrate. The rate of hydrolysis of the chromogenic or fluorogenic substrate by the relevant serine protease was measured both in the absence and presence of compounds of the present invention. […] A decrease in the rate of absorbance or fluorescence change in the presence of inhibitor is indicative of enzyme inhibition. Such methods are known to one skilled in the art. The results of this assay are expressed as the inhibitory constant, Ki. […] JT Baker or Fisher Scientific). […] Values of Ki were determined by allowing the protease to react with the substrate in the presence of the inhibitor. Reactions were allowed to go for periods of 20-180 minutes (depending on the protease) and the velocities (rate of absorbance or fluorescence change versus time) were measured.
Sequence of purified human Factor XIa (P03951 388-625): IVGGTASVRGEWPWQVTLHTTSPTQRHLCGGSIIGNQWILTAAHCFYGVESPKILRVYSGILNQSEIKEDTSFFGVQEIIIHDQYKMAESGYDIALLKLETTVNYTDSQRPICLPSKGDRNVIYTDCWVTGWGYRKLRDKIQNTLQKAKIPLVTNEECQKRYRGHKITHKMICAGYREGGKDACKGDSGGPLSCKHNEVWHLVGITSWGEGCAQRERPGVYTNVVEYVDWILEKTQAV
Sequence of purified human Factor XIa (P03951 19-387 partner): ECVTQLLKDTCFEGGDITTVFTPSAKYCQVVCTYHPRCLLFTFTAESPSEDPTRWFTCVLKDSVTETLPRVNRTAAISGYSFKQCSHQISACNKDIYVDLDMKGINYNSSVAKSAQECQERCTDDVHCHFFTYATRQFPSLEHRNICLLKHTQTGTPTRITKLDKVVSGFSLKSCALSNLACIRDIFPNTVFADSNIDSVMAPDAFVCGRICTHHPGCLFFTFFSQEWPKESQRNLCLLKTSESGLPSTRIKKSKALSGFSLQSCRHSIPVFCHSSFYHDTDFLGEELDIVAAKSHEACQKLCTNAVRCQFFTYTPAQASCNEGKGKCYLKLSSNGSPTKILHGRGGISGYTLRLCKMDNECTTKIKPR
Compound `O=C(NC1CCCNC1)C1c2cccc(N3CCC(N4CCCC4)CC3)c2CCN1C(=O)C=Cc1c(-n2cnnn2)ccc(Cl)c1F` (mixture of isomers) [Example 237] registered an inhibition constant (Ki) of 4620 nM.
The same measure, in the same setting: then `O=C(O)c1ccc(NC(=O)C2c3cccc(N4CCN(C(=O)OCc5ccccc5)CC4=O)c3CCN2C(=O)/C=C/c2c(-n3cnnn3)ccc(Cl)c2F)cc1` (racemic) [Example 52], with < 5 nM.
With `CCOC(=O)c1ccc(NC(=O)C2c3cccc(N4CCOCC4)c3CCN2C(=O)/C=C/c2c(-n3cnnn3)ccc(Cl)c2F)cc1` (racemic) [Example 63], affinity was put at a Ki of 34.5 nM.
Compound `CCNC(=O)c1ccc(NC(=O)C2c3cccc(N4CCNCC4)c3CCN2C(=O)/C=C/c2cc(Cl)c(F)cc2-n2cnnn2)cc1` (racemic) [Example 71] displayed an inhibition constant Ki of 492 nM.
With `O=C(O)c1ccc(NC(=O)C2c3cccc(N4CCC(C(=O)N5CCCC5)CC4)c3CCN2C(=O)/C=C/c2c(-n3cnnn3)ccc(Cl)c2F)cc1` (racemic) [Example 131], the Ki is < 5 nM.

Still in this test, the particulars now being: substrate S-2366, activity ranges, Table A.
Turning to `O=C(Nc1ccc2cn[nH]c2c1)C1c2cccc(N3CCOCC3=O)c2CCN1C(=O)/C=C/c1c(-n2cnnn2)ccc(Cl)c1F` (racemic) [Example 47], the Ki is < 5 nM.
The compound `CCOC(=O)c1ccc(NC(=O)C2c3cccc(N4CCOCC4=O)c3CCN2C(=O)/C=C/c2c(-n3cnnn3)ccc(Cl)c2F)cc1` (racemic) [Example 51] yielded a Ki of 5 to 10 nM.
For `CC(C)(C)OC(=O)c1ccc(NC(=O)C2c3cccc(N4CCN(C(=O)OC(C)(C)C)CC4=O)c3CCN2C(=O)/C=C/c2c(-n3cnnn3)ccc(Cl)c2F)cc1` (racemic) [Example 55], the inhibition constant Ki is 100 to 500 nM.
On the same count and under the same terms, then `CCOC(=O)c1ccc(NC(=O)C2c3cccc(N4CCN(C(=O)OC(C)(C)C)CC4=O)c3CCN2C(=O)/C=C/c2c(-n3cnnn3)ccc(Cl)c2F)cc1` (racemic) [Example 56], with 5 to 10 nM; and `COC(=O)Nc1ccc(NC(=O)C2c3cccc(N4CCOCC4)c3CCN2C(=O)/C=C/c2c(-n3cnnn3)ccc(Cl)c2F)cc1` (racemic) [Example 58], with 100 to 500 nM.
Consider `CC(C)(C)OC(=O)c1ccc(NC(=O)C2c3cccc(N4CCOCC4)c3CCN2C(=O)/C=C/c2c(-n3cnnn3)ccc(Cl)c2F)cc1` (racemic) [Example 59], for which the Ki was 5 to 10 nM.
Still for that read-out and setting: then `O=C(NC1CC1)c1ccc(NC(=O)C2c3cccc(N4CCNCC4)c3CCN2C(=O)/C=C/c2cc(Cl)c(F)cc2-n2cnnn2)cc1` (racemic) [Example 67], with 100 to 500 nM; and `O=C(NCCc1c[nH]cn1)c1ccc(NC(=O)C2c3cccc(N4CCNCC4)c3CCN2C(=O)/C=C/c2cc(Cl)c(F)cc2-n2cnnn2)cc1` (racemic) [Example 68], with 100 to 500 nM.
`O=C(Nc1ccccc1)c1ccc(NC(=O)C2c3cccc(N4CCNCC4)c3CCN2C(=O)/C=C/c2cc(Cl)c(F)cc2-n2cnnn2)cc1` (racemic) [Example 69] returned an inhibition constant Ki of 100 to 500 nM.
Still for that read-out and setting: next, `CC(=O)Nc1ccc(NC(=O)c2ccc(NC(=O)C3c4cccc(N5CCNCC5)c4CCN3C(=O)/C=C/c3cc(Cl)c(F)cc3-n3cnnn3)cc2)cc1` (racemic) [Example 70]: 100 to 500 nM; `CC(=O)NCCNC(=O)c1ccc(NC(=O)C2c3cccc(N4CCNCC4)c3CCN2C(=O)/C=C/c2cc(Cl)c(F)cc2-n2cnnn2)cc1` (racemic) [Example 72]: 500 to 5000 nM; `NC(=O)CCNC(=O)c1ccc(NC(=O)C2c3cccc(N4CCNCC4)c3CCN2C(=O)/C=C/c2cc(Cl)c(F)cc2-n2cnnn2)cc1` (racemic) [Example 73]: 500 to 5000 nM.
`COC(=O)CNC(=O)c1ccc(NC(=O)C2c3cccc(N4CCNCC4)c3CCN2C(=O)/C=C/c2cc(Cl)c(F)cc2-n2cnnn2)cc1` (racemic) [Example 74] returned a Ki of 100 to 500 nM.
The same measure, in the same setting: then `COc1cccc(NC(=O)c2ccc(NC(=O)C3c4cccc(N5CCNCC5)c4CCN3C(=O)/C=C/c3cc(Cl)c(F)cc3-n3cnnn3)cc2)c1` (racemic) [Example 75], with 100 to 500 nM; and `CN(C)C(=O)c1ccc(NC(=O)C2c3cccc(N4CCNCC4)c3CCN2C(=O)/C=C/c2cc(Cl)c(F)cc2-n2cnnn2)cc1` (racemic) [Example 76], with 500 to 5000 nM.
Same read-out and setting: then `CNC(=O)c1ccc(NC(=O)C2c3cccc(N4CCNCC4)c3CCN2C(=O)/C=C/c2cc(Cl)c(F)cc2-n2cnnn2)cc1` (racemic) [Example 77], with 100 to 500 nM; and `O=C(Nc1ccc(F)cc1)C1c2cccc(N3CCC(N4CCCC4)CC3)c2CCN1C(=O)/C=C/c1c(-n2cnnn2)ccc(Cl)c1F` (racemic) [Example 82], with < 5 nM.
With `CCOC(=O)c1ccc(NC(=O)C2c3cccc(N4CCC(N5CCCC5)CC4)c3CCN2C(=O)/C=C/c2c(-n3cnnn3)ccc(Cl)c2F)cc1` (racemic) [Example 83], the Ki is < 5 nM.
With `CC(C)(C)OC(=O)c1ccc(NC(=O)C2c3cccc(N4CCC(N5CCCC5)CC4)c3CCN2C(=O)/C=C/c2c(-n3cnnn3)ccc(Cl)c2F)cc1` (racemic) [Example 84], the Ki is < 5 nM.
In the case of `N#Cc1ccc(NC(=O)C2c3cccc(N4CCC(N5CCCC5)CC4)c3CCN2C(=O)/C=C/c2c(-n3cnnn3)ccc(Cl)c2F)cc1` (racemic) [Example 85], the Ki is < 5 nM.
For `COC(=O)Nc1ccc(NC(=O)C2c3cccc(N4CCC(N5CCCC5)CC4)c3CCN2C(=O)/C=C/c2c(-n3cnnn3)ccc(Cl)c2F)cc1` (racemic) [Example 89], the inhibitory constant (Ki) was < 5 nM.
Same read-out and setting: next, `CN(C)C1CCN(c2cccc3c2CCN(C(=O)/C=C/c2c(-n4cnnn4)ccc(Cl)c2F)C3C(=O)Nc2ccc(C(=O)OC(C)(C)C)cc2)CC1` (racemic) [Example 91]: 5 to 10 nM; `O=C(O)c1ccc(NC(=O)C2c3cccc(N4CCC(c5ccccc5)CC4)c3CCN2C(=O)/C=C/c2c(-n3cnnn3)ccc(Cl)c2F)cc1` (racemic) [Example 95]: < 5 nM.
On to `O=C(O)c1ccc(NC(=O)C2c3cccc(N4CCC(N5CCCC5=O)CC4)c3CCN2C(=O)/C=C/c2c(-n3cnnn3)ccc(Cl)c2F)cc1` (racemic) [Example 96], for which the Ki was < 5 nM.
Still for that read-out and setting: next, `NC1CCN(c2cccc3c2CCN(C(=O)/C=C/c2c(-n4cnnn4)ccc(Cl)c2F)C3C(=O)Nc2ccc(C(=O)O)cc2)CC1` (racemic) [Example 97]: < 5 nM; `CN(C)C(=O)C1CCN(c2cccc3c2CCN(C(=O)/C=C/c2c(-n4cnnn4)ccc(Cl)c2F)C3C(=O)Nc2ccc(C(=O)O)cc2)CC1` (racemic) [Example 100]: < 5 nM.
Still for that read-out and setting: then `O=C(Nc1ccc(Cl)cc1)C1c2cccc(N3CCC(N4CCCC4)CC3)c2CCN1C(=O)/C=C/c1c(-n2cnnn2)ccc(Cl)c1F` (racemic) [Example 104], with < 5 nM; and `CCCCOC(=O)c1ccc(NC(=O)C2c3cccc(N4CCC(N5CCCC5)CC4)c3CCN2C(=O)/C=C/c2c(-n3cnnn3)ccc(Cl)c2F)cc1` (racemic) [Example 105], with < 5 nM.
For `CCOC(=O)c1ccc(NC(=O)C2c3cccc(N4CCC5(CCN(C)C5=O)CC4)c3CCN2C(=O)/C=C/c2c(-n3cnnn3)ccc(Cl)c2F)cc1` (racemic) [Example 109], the Ki is 5 to 10 nM.
For the compound `O=C(O)c1ccc(NC(=O)C2c3cccc(N4CCC(N5CCCCC5)CC4)c3CCN2C(=O)/C=C/c2c(-n3cnnn3)ccc(Cl)c2F)cc1` (racemic) [Example 115], the Ki was < 5 nM.
In the case of `CC(C)C1CCN(c2cccc3c2CCN(C(=O)/C=C/c2c(-n4cnnn4)ccc(Cl)c2F)C3C(=O)Nc2ccc(C(=O)O)cc2)CC1` (racemic) [Example 116], the Ki was < 5 nM.
Still for that read-out and setting: next, `CC1(C)CCN(c2cccc3c2CCN(C(=O)/C=C/c2c(-n4cnnn4)ccc(Cl)c2F)C3C(=O)Nc2ccc(C(=O)O)cc2)CC1` (racemic) [Example 117]: < 5 nM; `Cn1ncc2ccc(NC(=O)C3c4cccc(N5CCC(N6CCCC6)CC5)c4CCN3C(=O)/C=C/c3c(-n4cnnn4)ccc(Cl)c3F)cc21` (racemic) [Example 120]: < 5 nM; `O=C(O)c1ccc(NC(=O)C2c3cccc(N4CCC5(CCN(Cc6ccccc6)C5=O)CC4)c3CCN2C(=O)/C=C/c2c(-n3cnnn3)ccc(Cl)c2F)cc1` (racemic) [Example 121]: < 5 nM.
Take `CC(C)OC(=O)c1ccc(NC(=O)C2c3cccc(N4CCC(N5CCCC5)CC4)c3CCN2C(=O)/C=C/c2c(-n3cnnn3)ccc(Cl)c2F)cc1` (racemic) [Example 122]: the inhibition constant (Ki) is < 5 nM.
With `CC(C)COC(=O)c1ccc(NC(=O)C2c3cccc(N4CCC(N5CCCC5)CC4)c3CCN2C(=O)/C=C/c2c(-n3cnnn3)ccc(Cl)c2F)cc1` (racemic) [Example 123], the Ki was < 5 nM.
As to `O=C(OC1CCCC1)c1ccc(NC(=O)C2c3cccc(N4CCC(N5CCCC5)CC4)c3CCN2C(=O)/C=C/c2c(-n3cnnn3)ccc(Cl)c2F)cc1` (racemic) [Example 124], the Ki was < 5 nM.
On to `Cn1ncc2cc(NC(=O)C3c4cccc(N5CCC(N6CCCC6)CC5)c4CCN3C(=O)/C=C/c3c(-n4cnnn4)ccc(Cl)c3F)ccc21` (racemic) [Example 127], for which the Ki is < 5 nM.
The same measure, in the same setting: then `O=C(O)c1ccc(NC(=O)C2c3cccc(N4CCC(N5CCCCC5=O)CC4)c3CCN2C(=O)/C=C/c2c(-n3cnnn3)ccc(Cl)c2F)cc1` (racemic) [Example 130], with < 5 nM; and `CCOC(=O)c1ccc(NC(=O)C2c3cccc(N4CCC(C(=O)N5CCCC5)CC4)c3CCN2C(=O)/C=C/c2c(-n3cnnn3)ccc(Cl)c2F)cc1` (racemic) [Example 134], with < 5 nM.
Still for that read-out and setting: next, `CCOC(=O)C1CCN(c2cccc3c2CCN(C(=O)/C=C/c2c(-n4cnnn4)ccc(Cl)c2F)C3C(=O)Nc2ccc(C(=O)O)cc2)CC1` (racemic) [Example 136]: < 5 nM.

The values are drawn from patent publication US10208021B2, “Substituted tetrahydroisoquinoline compounds as factor XIa inhibitors” (BRISTOL-MYERS SQUIBB COMPANY, priority 2011, dated 2019).
